Test results as given in patent EP0080940B1, “Derivatives of 2-phenyl-morpholine and medical compositions” (LABORATOIRE L. LAFON Société anonyme dite:, priority 1981, dated 1983).

How the values were obtained:
[1] = test system: souris mâle; experiment: Acute toxicity by the i.p. route (DL-0, DL-50); format: in vivo; settings: voie i.p.
Procedure: (§1) On a résumé ci-après les résultats des essais qui ont été entrepris chez l'animal avec le CRL 40914, ce produit étant administré, sauf indications contraires, en solution dans l'eau (à pH 5) par voie intrapéritonéale sous un volume de 20 ml/kg chez la souris mâle et de 5 ml/kg chez le rat mâle.
Chez la souris mâle, la DL-0 (dose maximale non mortelle) par voie i.p. est supérieure à 128 mg/kg.
(§2) On a résumé ci-après les résultats des essais qui ont été entrepris chez l'animal avec le CRL 40915, les modalités opératoires étant celles données ci-dessus pour le CR L 40914.
Chez la souris mâle, la DL-0 (dose maximale non mortelle) par voie i.p. est supérieure à 256 mg/kg, et la DL-50 par voie i.p. est de l'ordre de 500 mg/kg environ.

[2] = test system: souris; experiment: Global behaviour and reactivity, mouse; format: in vivo
Procedure: as §1
(§3) Des lots de 3 animaux sont observés avant, puis 15 min, 30 min, 1 h, 2 h, 3 h et 24 h après l'administration de CRL 40914. On observe ce qui suit:
as §2

[3] = test system: rat; experiment: Global behaviour and reactivity, rat; format: in vivo
Procedure: as §1, §3, §2

[4] = test system: souris; experiment: Action on rectal temperature; format: in vivo
Procedure: as §1
Des lots de 6 souris reçoivent le CRL 40914; la température rectale est notée toutes les 30 min.

[5] = test system: souris; experiment: Interaction with apomorphine, mouse; format: in vivo; settings: 16 mg/kg et 64 mg/kg i.p., une demi-heure avant apomorphine s.c. 1 ou 16 mg/kg
Procedure: Des lots de 6 souris reçoivent le CRL 40914 une demi-heure avant l'injection sous-cutanée d'apomorphine, à la dose de 1 mg/kg ou 16 mg/kg.
as §2

[6] = test system: rats; experiment: Interaction with amphetamine; format: in vivo; settings: rat, 8 mg/kg et 32 mg/kg i.p., amphétamine 2 mg/kg i.p.
Procedure: L'amphétamine (2 mg/kg) est injectée par voie intrapéritonéale à des lots de 12 rats, une demi-heure après l'administration de CRL 40914.
as §2

[7] = test system: souris; experiment: Interaction with oxotremorine; format: in vivo; settings: oxotrémorine 0,5 mg/kg i.p.
Procedure: Le CRL 40914 est administré à des lots de 6 souris une demi-heure avant l'injection intrapéritonéale de 0,5 mg/kg d'oxotrémorine.
as §2

[8] = test system: souris; experiment: Action on spontaneous motility (actimeter); format: in vivo
Procedure: Une demi-heure après avoir reçu le CRL 40914, des souris sont placées en actimètre où leur motilité est enregistrée pendant 30 min.
as §2

[9] = test system: souris; experiment: Motility reduced by habituation to the enclosure; format: in vivo; settings: 64 mg/kg i.p.
Procedure: Après 18 h de séjour dans les actimètres, les souris (6 par dose, 12 témoins) reçoivent le CRL 40914. Elles sont aussitôt replacées dans leurs enceintes respectives et, une demi-heure plus tard, on enregistre leur motilité pendant 30 min.
as §2

[10] = test system: souris; experiment: Motility reduced by hypoxic aggression; format: in vivo; settings: i.p., anoxie hypobare aiguë
Procedure: Une demi-heure après avoir reçu le CRL 40914, les souris (10 par dose, 20 témoins) sont soumises à une anoxie hypobare aiguë [dépression de 600 mm Hg (soit environ 8 x10^4 pascals) en 90 s puis détente de 45 s] puis elles sont placées en actimètre où leur motilité est enregistrée pendant 10min.
as §2

[11] = test system: souris; experiment: Asphyxic anoxia (gallamine triethiodide); format: in vivo
Procedure: Des lots de 10 souris reçoivent le CRL 40914 une demi-heure avant l'administration intrapéritonéale de 32 mg/kg de triiodoéthylate de gallamine (agent curarisant de référence).
as §2

[12] = test system: souris; experiment: Behavioural despair (immobility in water); format: in vivo; settings: souris en immersion, dès 4 mg/kg i.p.; effet particulièrement net à 64 mg/kg
Text: Une demi-heure après avoir reçu le CRL 40914 ou la désipramine, des lots de 10 souris sont plongés dans un bécher rempli d'eau sur une hauteur de 6 cm. On note la durée d'immobilité de la souris entre la 2ème et la 6ème min suivant son immersion.

[13] = test system: souris; experiment: Interaction with yohimbine, temperature; format: in vivo; settings: 1 mg/kg et 16 mg/kg de CRL 40914, yohimbine 0,5 mg/kg i.p. une demi-heure avant
Procedure: Des lots de 12 souris reçoivent une injection intrapéritonéale de 0,5 mg/kg de yohimbine, une demi-heure avant l'administration de CRL 40914.

[14] = test system: rats génétiquement hypertendus; experiment: Action on the cardiovascular system; format: in vivo, rat; settings: 20 mg/kg par voie buccale
Procedure: Six rats génétiquement hypertendus à cathéter artériel fémoral implanté reçoivent le CRL 40914 à la dose de 20 mg/kg par voie buccale.

[15] = test system: homme; experiment: Clinical use by the oral route; format: in vivo; settings: voie orale, 2 à 3 comprimés ou gélules (10 à 20 mg chacun) par jour
[16] = souris, 0,25 mg/kg, 1 mg/kg, 4 mg/kg et 16 mg/kg i.p.

Q: Which results are given for `CCN1CCOC(c2ccccc2)C1` (stereo not shown) [CRL 40914, Chlorhydratede 2-phényl-4-éthyl-morpholine]?
A: DL-0 (dose maximale non mortelle) [1]: > 128 mg/kg; mydriase ([2]; 2 mg/kg i.p.): mydriase pendant 1 h; sédation ([2]; 2 mg/kg i.p.): sédation pendant 30 à 60 min; hypothermie ([2]; 2 mg/kg i.p., pendant 1 à 2 h): -3,6 °C; mydriase ([2]; 4 mg/kg i.p.): mydriase pendant 1 heure; sédation ([2]; 4 mg/kg i.p.): sédation pendant 30 à 60 min; hypothermie ([2]; 4 mg/kg i.p., pendant 1 h): -2,2 °C; excitation ([2]; 16 mg/kg i.p.): excitation pendant 30 min suivie d'une hyporéactivité au toucher; lacrymation ([2]; 16 mg/kg i.p.): lacrymation pendant 1 h; mydriase ([2]; 16 mg/kg i.p.): mydriase pendant 1 h; hypothermie ([2]; 16 mg/kg i.p., pendant 2 à 3 h): -2,8 °C; excitation ([2]; 64 mg/kg i.p.): excitation pendant 1 à 2 h avec manifestation de mouvements stéréotypés; mydriase ([2]; 64 mg/kg i.p.): mydriase pendant 1 h; piloérection, salivation et lacrymation ([2]; 64 mg/kg i.p.): piloérection, salivation et lacrymation pendant 1 h; polypnée ([2]; 64 mg/kg i.p.): polypnée pendant 2 h; mydriase ([3]; rat, 0,5 mg/kg i.p.): mydriase pendant 1 à 2 h; mydriase ([3]; rat, 2 mg/kg i.p.): mydriase pendant 1 à 2 h; sédation ([3]; rat, 2 mg/kg i.p.): sédation pendant 1 h; mydriase ([3]; rat, 8 mg/kg i.p.): mydriase pendant 2 h; piloérection ([3]; rat, 8 mg/kg i.p.): piloérection pendant 1 à 2 h; sédation ([3]; rat, 8 mg/kg i.p.): sédation pendant 2 h avec diminution de la réactivité au toucher mais augmentation de la réaction de peur; mydriase ([3]; rat, 32 mg/kg i.p.): mydriase pendant plus de 3 h; piloérection, salivation et lacrymation ([3]; rat, 32 mg/kg i.p.): piloérection (pendant 3 h), salivation (pendant 1 h) et lacrymation (pendant 1 h); réaction de peur ([3]; rat, 32 mg/kg i.p.): augmentation de la réaction de peur pendant 3 h; sédation ([3]; rat, 32 mg/kg i.p.): sédation pendant 3 h avec diminution de la réactivité au toucher et du tonus musculaire; durée de l'hypothermie [4, 16]: 90 à 120 min; température rectale [4, 16]: hypothermie maximale après 30 min; température rectale ([4]; souris, 64 mg/kg i.p.): hyperthermie qui apparaît à 30 min et qui fait ensuite place à une hypothermie modérée; action hypothermisante de l'apomorphine [5]: s'oppose à l'action hypothermisante de l'apomorphine; indices de verticalisation et de stéréotypies (apomorphine) [5]: semble augmenter les indices de verticalisation et de stéréotypies; stéréotypies amphétaminiques [6]: diminue nettement l'intensité des téréotypies amphétaminiques; effet hypothermisant de l'oxotrémorine ([7]; 16 mg/kg et 64 mg/kg i.p.): combat l'effet hypothermisant; tremblements dus à l'oxotrémorine ([7]; 64 mg/kg i.p.): diminue l'intensité des tremblements; signes de stimulation cholinergique périphérique provoqués par l'oxotrémorine [7]: laisse inchangés les signes de stimulation cholinergique périphériques; activité motrice spontanée ([8]; 64 mg/kg i.p.): hyperactivité nette; activité motrice spontanée ([8]; dès 0,125 mg/kg i.p., maximum entre 0,5 mg/kg et 16 mg/kg): diminution de l'activité motrice spontanée; activité motrice chez la souris habituée à son enceinte [9]: reprise très nette de l'activité motrice; activité motrice après agression hypoxique [10]: modifications de l'activité motrice qui reflètent son action sur la motilité spontanée; apparition des convulsions et de la mort (anoxie asphyxique) ([11]; 1 mg/kg, 4 mg/kg et 16 mg/kg i.p., triiodoéthylate de gallamine 32 mg/kg i.p.): retard d'apparition des convulsions et, à un degré moindre, de la mort; apparition des convulsions et de la mort (anoxie asphyxique) ([11]; dose plus élevée (above 16 mg/kg) i.p.): cet effet disparaît; durée d'immobilité [12]: diminue la durée d'immobilité; hypothermie induite par le CRL 40914 après yohimbine [13]: empêche l'apparition de l'hypothermie; effet sur la pression artérielle [14]: modérément hypotenseur; temps de l'effet maximal sur la pression artérielle [14]: 7 h; variation de la pression artérielle ([14]; 7 h après): -18%; pression artérielle (effet maximal) ([14]; 7 h après, valeur initiale 165): 135 mm Hg; pression artérielle et fréquence cardiaque après 24 h ([14]; 24 h): sont revenues à leur valeur témoin; fréquence cardiaque (minimum) ([14]; après 1,5 h, valeur initiale 350): 270 battements/minute; résultats cliniques (agent antidépresseur du SNC) [15]: d'excellents résultats
